Legend:
human endothelial cells = settings: added to the culture system; J. Biol. Chem., 273, 34349, 1998; cited from earlier work
THP-1 cells [1] = assay: Cholesterol efflux activity in foamed THP-1 macrophage-like cells ([3H]cholesterol, apolipoprotein AI); assay type: cell-based; settings: for Cholesterol Efflux Activity (%): mean ± standard deviation
Procedure: THP-1 cells (purchased from ATCC; Int. J. Cancer., 26, 171-176, 1980) seeded in a 12-well plate (Falcon) at 8.0×10^5/well were treated for 3 days in RPMI-1640 medium (supplemented with 10% FBS, 25 mM HEPES and penicillin/streptomycin) containing phorbol-12-myristate-13-acetate (PMA) (final concentration: 100 nM) to allow for differentiation into macrophage-like cells. After washing with PBS, serum-free RPMI-1640 containing [^3H] cholesterol-labeled βVLDL (final cholesterol level: 150 μg/ml) was added thereto and incubated for 24 hours to prepare foamed cells. After washing twice with 0.2% BSA-containing PBS and then once with PBS, serum-free RPMI-1640 media supplemented with 0, and 20 µM D-PDMP, respectively, were added to treat for 24 and 48 hours. The supernatant was removed and RPMI-1640 medium (final concentration: 25 μg/ml) containing human apolipoprotein AI (Chemicon) was added thereto. Six hours after, the radioactivity released into the supernatant was measured in a liquid scintillation counter. The cells were further washed once with PBS and then lysed in 0.1% SDS-containing 0.1 N NaOH aqueous solution. A part of the lysate was taken up and the radioactivity was measured in a liquid scintillation counter.
The activity in efflux of cholesterol was determined by the following equation: Cholesterol efflux activity (%)=Radioactivity in supernatant/(Radioactivity in supernatant+Radioactivity in cell lysate)×100
Cells were prepared as described in (1) above. After the foamed cells prepared were washed, serum-free RPMI-1640 media containing 10 μM of glucosylceramide (Matreya, Inc.) and lactosylceramide (CALBIOCHEM), respectively, were added to treat for 24 hours. The supernatant was removed and RPMI-1640 medium (final concentration: 25 μg/ml) containing human apolipoprotein AI (Chemicon) was added thereto. Six hours after, the cholesterol efflux activity was measured by the same method as described in (1) above.

[2] = test system: human smooth muscle cells; settings: added to the culture system; Biochem. Biophys. Res. Commun., 181, 554-61, 1991; cited from earlier work
[3] = test system: lactosylceramide synthase; settings: Glycoconjugate J., 13, 481-486, 1996; cited from earlier work
phosphorylation of IRS-1 = settings: J. Biol. Chem., 277, 3085-3092, 2002; cited from earlier work
cells = settings: J. Biochem. (Tokyo), 117, 766-773, 1995; cited from earlier work
[4] = molecular target: T1, glucosylceramide synthase (Homo sapiens, UniProt Q16739); assay: Glucosylceramide synthase enzyme assay ([14C]UDP-glucose, C8 ceramide, lysate of transfected HEK293 cells); assay type: biochemical; parameters: made in house; host or cells: HEK293 cells, transiently transfected with pcDNA3.1(-) vector; M-PER lysate, soluble fraction after 27,000 x g; settings: calculated using SAS Preclinical Package, ver. 5
T1 sequence (Q16739 1-394): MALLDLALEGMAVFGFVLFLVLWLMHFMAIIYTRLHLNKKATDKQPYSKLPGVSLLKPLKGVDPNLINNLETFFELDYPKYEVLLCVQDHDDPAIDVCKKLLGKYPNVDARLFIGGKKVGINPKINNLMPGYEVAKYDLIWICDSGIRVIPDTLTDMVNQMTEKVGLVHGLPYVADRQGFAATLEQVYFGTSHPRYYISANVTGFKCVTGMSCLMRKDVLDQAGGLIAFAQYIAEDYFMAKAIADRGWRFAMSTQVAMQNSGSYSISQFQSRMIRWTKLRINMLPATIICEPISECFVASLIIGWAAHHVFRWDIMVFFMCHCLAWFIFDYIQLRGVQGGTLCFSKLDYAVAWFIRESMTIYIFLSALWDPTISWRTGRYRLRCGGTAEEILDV
Procedure: Human glucosylceramide synthase gene was obtained from IMAGE clone 5274768 (Invitrogen). The reaction solution for the reaction was composed of 2 μl of plasmid DNA of IMAGE clone 5274768, 5 μl of 10×Pfu buffer (Stratagene), 1 μl of Hotstart Pfu (Stratagene), 1 μl each of 20 μM primers and 4 μl of 2.5 mM dNTP, to which 36 μl of distilled water was added to make the volume […]. After 2 minutes at 95° C., PCR was carried out by repeating 30 cycles, one set to include 95° C. for 30 seconds, 60° C. for 30 seconds and 72° C. for 2 minutes, followed by an extension at 72° C. for 10 minutes. […]
HEK293 cells (purchased from ATCC; J. Gen. Virol., 36, 59-74, 1977) were cultured in serum-containing DMEM medium and seeded in a 10 cm collagen coated plate (Iwaki Co.) at 1.2×10^6 on the previous day of gene transfer. […] Then, the chloroform layer was collected and the radioactivity was measured in a liquid scintillation counter. The activity value was determined by the following equation: Glucosylceramide synthase activity (%)=Radioactivity of the enzyme reaction product (cpm)/Specific radioactivity of [^14C]UDP-glucose (cpm/nmol)×1/amount of protein (mg)·reaction time (hr)
D-PDMP known to inhibit the glucosylceramide synthase activity was examined using the procedure described above. The IC50 was calculated using SAS Preclinical Package, ver. […]

[5] = molecular target: T1, glucosylceramide synthase; settings: Glycoconjugate J., 13, 481-486, 1996; cited from earlier work
THP-1 cells [6] = assay: DiI-labeled acetyl LDL (denatured lipoprotein) uptake activity in THP-1 cells, FACS; assay type: cell-based
Procedure: THP-1 cells (purchased from ATCC) seeded in a 6-well Low Cell Binding Plate (Nunc) at 1.5×10^6/well were treated for 2 days in RPMI-1640 medium (supplemented with 0.4% FBS, 25 mM HEPES and penicillin/streptomycin) containing phorbol-12-myristate-13-acetate (PMA) (final concentration: 100 nM) or in RPMI-1640 medium (supplemented with 0.4% FBS, 25 mM HEPES and penicillin/streptomycin) containing PMA (final concentration: 100 nM) and D-PDMP (final concentration: 20 μM). Next, the treated cells were washed with serum-free RPMI-1640 medium and then suspended in serum-free RPMI-1640 medium supplemented with DiI (1,1′-dioctadecyl-3,3,3′,3′-tetramethylindocarbocyanine)-labeled acetyl LDL (Funakoshi, final concentration: 20 μg/ml), followed by incubation at 37° C. for 90 minutes while shaking. After washing with PBS, the cells were suspended in Cellfix buffer (BD) and uptake of DiI-labeled acetyl LDL was analyzed on a FACScan (BD Bioscience). The intermediate value obtained by the FACS analysis of the cells treated with phorbol-12-myristate-13-acetate alone was made 100%, and relative values were determined under each condition.

[7] = exogenously added to the culture system, summary of TABLES 2 and 3

## Lactosylceramide
Human endothelial cells
  Expression of cell adhesion molecules such as ICAM-1: is increased in human endothelial cells
THP-1 cells [1]; Lactosylceramide 10 μM, 24 hours, 0 μM control 4.3 ± 0.2
  Cholesterol Efflux Activity (%): 2.3 ± 0.2%
THP-1 cells [1]; [7]
  Effect on cholesterol efflux activity (in words): suppressed
[2]
  Proliferation activity: the proliferation activity is increased

## Glucosylceramide
THP-1 cells [1]; Glucosylceramide 10 μM, 24 hours, 0 μM control 3.6 ± 0.1
  Cholesterol Efflux Activity (%): 3.2 ± 0.2%
THP-1 cells [1]; [7]
  Effect on cholesterol efflux activity (in words): suppressed

## CCCCCCCCCC(=O)N[C@H](CN1CCOCC1)[C@H](O)c1ccccc1 [D-PDMP, D-threo-1-phenyl-2-decanoylamino-3-morpholino-1-propanol]
[3]
  Inhibition of lactosylceramide synthase activity (in words): known to inhibit the activities
Phosphorylation of IRS-1
  Effect on the action of TNF-α that inhibits phosphorylation of IRS-1: suppresses the action of TNF-α that inhibits phosphorylation of IRS-1
cells
  Depletion of glucosylceramide and lactosylceramide in cells (in words): deplete glucosylceramide and lactosylceramide in cells in a concentration- and treating time-dependent manner
[4]
  IC50: 1500 nM
[5]
  Inhibition of glucosylceramide synthase activity (in words): known to inhibit the activities
THP-1 cells [6]; D-PDMP 20 μM with PMA 100 nM, 2 days, relative to PMA alone = 100%, mean ± standard deviation
  Acetyl LDL Uptake Activity (%): 28.9 ± 6.3^ %
THP-1 cells [6]; summary of TABLE 4
  Effect on acetyl LDL uptake activity (in words): suppressed the acetyl LDL uptake activity
THP-1 cells [1]; D-PDMP 10 μM, 24 hrs. treatment, 0 μM control 1.7 ± 0.3
  Cholesterol Efflux Activity (%): 4.4 ± 0.4%
THP-1 cells [1]; D-PDMP 10 μM, 48 hrs. treatment, 0 μM control 2.1 ± 0.2
  Cholesterol Efflux Activity (%): 6.0 ± 0.4%
THP-1 cells [1]; D-PDMP 20 μM, 24 hrs. treatment, 0 μM control 1.7 ± 0.3
  Cholesterol Efflux Activity (%): 4.3 ± 0.8%
THP-1 cells [1]; D-PDMP 20 μM, 48 hrs. treatment, 0 μM control 2.1 ± 0.2
  Cholesterol Efflux Activity (%): 6.8 ± 0.5%
THP-1 cells [1]; summary of TABLE 1
  Effect on cholesterol efflux activity (in words): increased the cholesterol efflux activity concentration- and time-dependently

Source: patent publication US20070248591A1, “Preventive/Therapeutic Drug for Arteriosclerosis” (TAKEDA PHARMACEUTICAL COMPANY LIMITED, priority 2004, published 2007)
